Assay results as given in patent publication US6593365B1, “Diflunisal esters and related compounds” (The University of Queensland, priority 1997, dated 2003).
Where “and” joins values, the source holds several entries; their conditions need not be identical. Equal entries are not always repeated. Where two headings read alike, the source gives them in different places.

How the values were obtained:
[1] = Intrinsic (maximum) solubility in water at pH 1.5; assay type: physicochemical; conditions: 25 °C, pH 1.5, simulated gastric fluid
Protocol: The pH conditions were chosen to ensure that the solubility of the unionised species was estimated. […] Lea & Febiger/Philadelphia. […] […] The solvent (9.9 mL) was then added to the test tube. […] The test tube was sonicated for 15 minutes and centrifuged for 10 minutes (3000 g at 25° C.). An aliquot was filtered (Minisart 0.45 μm filter, Satorius) and diluted with HPLC mobile phase, then assayed. The tube was stored carefully in a 25° C. water bath after sampling and the remaining suspension was again sonicated and the process repeated 7 times at four hourly intervals. In these assays, standard curves were prepared by directly dissolving the esters in mobile phase. Concentrations for standard curves ranged from 1-50 μg/mL for all compounds. Furthermore, a manual injector (Waters Model U6K) was used (20 μL sample loop) which ensured that 20 μL was consistently injected onto the column and precluded the need for an internal standard.

[2] = In vitro non-enzymatic hydrolysis in Krebs-Henseleit buffer; assay type: physicochemical; conditions: for Hydrolysis rate constant (k): pH 7.4, 25° C., n=5; for half-life: pH 7.4
Protocol: These experiments were carried out both in Krebs-Henseleit buffer containing either no protein or 2% w/v BSA (bovine serum albumin, fraction V, Sigma) at pH 7.4 and 25±1° C.
Solutions of the derivatives in Krebs buffer (10 mL) was prepared in siliconised glass tubes. Each solution was sonicated for 5 minutes and centrifuged for 5 minutes (3000 g) at 25° C. to ensure maximum dissolution and to sediment any undissolved precipitate. About 7.5 mL of the supernatant was then transferred to a clean siliconised test tube and a 100 μL aliquot was removed and assayed. […] The rate of non-enzymatic hydrolysis (k) for each derivative was then estimated using the following equation: […]
where C1 is the concentration of the ester at any time (t), and C0 is the concentration of the ester at time zero. The half-life (t½) was determined using the formula: […]

[3] = target: T1, BSA (bovine serum albumin) (Bos taurus, UniProt P02769); test: Protein binding by ultrafiltration in 2% BSA Krebs buffer; assay type: in vitro ADME; conditions: 2% BSA Krebs-Henseleit buffer pH 7.4, 37° C.; slope of Scatchard plot
T1 construct: BSA (bovine serum albumin, fraction V, Sigma); purchased Sigma; host or cells: bovine serum (fraction V)
T1 sequence (P02769 25-607): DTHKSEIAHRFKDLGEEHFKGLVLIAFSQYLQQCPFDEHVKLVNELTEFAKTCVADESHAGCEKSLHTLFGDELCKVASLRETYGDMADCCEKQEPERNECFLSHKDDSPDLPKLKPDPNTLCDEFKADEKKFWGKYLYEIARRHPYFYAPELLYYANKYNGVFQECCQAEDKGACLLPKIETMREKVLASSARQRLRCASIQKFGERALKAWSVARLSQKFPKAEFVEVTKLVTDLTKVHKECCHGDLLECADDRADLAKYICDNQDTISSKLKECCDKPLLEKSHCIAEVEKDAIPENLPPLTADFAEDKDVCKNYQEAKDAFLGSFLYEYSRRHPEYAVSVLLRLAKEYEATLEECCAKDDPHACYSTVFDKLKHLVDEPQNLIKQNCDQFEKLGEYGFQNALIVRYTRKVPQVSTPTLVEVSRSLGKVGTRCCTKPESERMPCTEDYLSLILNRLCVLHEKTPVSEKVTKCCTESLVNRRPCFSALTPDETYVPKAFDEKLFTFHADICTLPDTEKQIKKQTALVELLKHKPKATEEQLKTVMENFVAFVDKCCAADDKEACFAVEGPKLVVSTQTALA
Protocol: These experiments were carried out in Krebs-Henseleit buffer containing 2% w/v BSA (pH 7.4) and incubated at 37° C. for 30 minutes.
A known concentration of the ethanolic (≲1%) aspirin analogue or diflunisal ester stock solution was added to the 2% BSA Krebs solution to make final concentrations of 125 μM, 250 μM and 500 μM.
The unbound fraction (fu) of parent drug and its hydrolysis product were investigated using ultra-filtration: A 1.0 mL aliquot sample (in triplicate) was placed in a ultrafiltration tube (MPS-1, micro-partition system, Amicon) and centrifuged at 3000 g for 10 minutes. The ultra-filtrate was then assayed for parent drug and its hydrolysis product by HPLC.
To eliminate possible errors caused by hydrolysis, identical samples were placed in normal tubes and subjected to the same procedure. This control group (also in triplicate) was used to adjust for the percentage of hydrolysis in the ultra-filtrate under the experimental conditions.
The fu was determined as the ratio of the free concentration to total concentration of solutes. The binding constant (K) was determined from the slope of a Scatchard plot using following equation:
[Db]/[D]=−K[Db]vK[Pt] (3)
where [Db] is the concentration of bound drug, [D] is the concentration of drug, [Pt] is the concentration of total protein, and v is the number of independent binding sites available. This equation is plotted as the ratio [Db]/[D] versus [Db] and in this way the binding constant (K) is determined from the slope while vK[Pt] is determined from the intercept (Martin, 1983).

[4] = test system: human platelet rich plasma; test: Platelet aggregation induced by arachidonic acid; assay type: cell-based; conditions: compound 600 µM, 37° C., arachidonic acid 200 µM
Protocol: Platelet aggregation studies were carried out using a single channel Lumiaggregometer (Chrono-Log Company, Haverton, Pa.) at 37° C. using human platelet-rich and platelet-poor plasma. Platelet-rich plasma (PRP) with a platelet concentration of […] (measured with a Coulter counter) was prepared by centrifuging 3.8% citrated […] (1:9) at 1,500 rpm using a (Beckman) benchtop centrifuge at room temperature for 15 minutes. Platelet-poor plasma (PPP) was prepared by further centrifuging residual blood from platelet-rich plasma at 3,000 rpm for 30 minutes. Platelet-poor plasma was also confirmed b y Coulter counting for platelet content.
Platelet aggregation studies were preceded by pipetting 0.4 mL platelet-rich plasma into a stirred aggregometer tube and calibrate to 90% of recorder. Platelet-poor plasma was set to calibrate at 10% of recorder. Platelet aggregation was initiated by the addition of a arachidonic acid (Sigma) or ADP (Sigma).
10 mM solutions of each compound (TABLE 6) were prepared in 1 mL of normal saline solution (containing 4% BSA) before use. An aliquot (400 μL) of platelet-rich plasma was pipetted into a stirred aggregometer tube at 37° C. and 30 μL of test sample added simultaneously. This mixture was preincubated for varying period (3 to 45 minutes), then arachidonic acid (AA) was added (final conc.=200 μM) to initiate platelet aggregation. If no aggregation occurred, 20 μM ADP was added to confirm the vitality of the platelets (if the platelets are vital, ADP will induce this AA-test sample-plasma mixture to aggregate). This procedure is necessary to investigate whether the non-aggregation phenomenon is due to drug inhibition or simply due to inviable platelets (unable to respond to AA). The degree of aggregation was measure by calculating the area under the turbidimetric response curve (AUC).

solubility [1]: 2 µg/mL and 8 µM | Hydrolysis rate constant (k) ([2]; Krebs-Henseleit buffer 0% BSA, U = Undetectable): 0.0051 ± 0.0031 hour^1 | Hydrolysis rate constant (k) ([2]; Krebs-Henseleit buffer 2% BSA): 0.0010 ± 0.0004 hour^1 | half-life ([2]; Krebs-Henseleit buffer with 2% w/v BSA, 2% BSA Krebs buffer, read-out: Half-life (converted)): ~30 days | half-life ([2]; bovine, Krebs-Henseleit buffer with 2% w/v BSA, read-out: Half life (t1/2) (converted)): 28.9 days | half-life ([2]; protein-free Krebs-Henseleit buffer, Krebs-Henseleit buffer 0% BSA, first half life, t1/2=0.693/k, U = Undetectable, read-out: Half life (t1/2) (converted)): 5.66 days | Protein binding constant (K) [3]: 13978 L/mol
Structure (SMILES): CCCCCCCC(=O)Oc1ccccc1C(=O)O [Compound C8SA, n-octanoylsalicylic acid]
Platelet Aggregation (% of control) ([4]; preincubation 3 minutes): 95.4 ± 2.1 % of control | Platelet Aggregation (% of control) ([4]; preincubation 5 minutes): 92.4 ± 0.1 % of control | Platelet Aggregation (% of control) ([4]; preincubation 8 minutes): 87.3 ± 3.3 % of control | Platelet Aggregation (% of control) ([4]; preincubation 10 minutes): 67.5 ± 2.7 % of control | Platelet Aggregation (% of control) ([4]; preincubation 12 minutes): 27.3 ± 0.2 % of control | Platelet Aggregation (% of control) ([4]; preincubation 15 minutes): 0 % of control | Platelet Aggregation (% of control) ([4]; preincubation 20 minutes): 0 % of control | Platelet Aggregation (% of control) ([4]; preincubation 25 minutes): 0 % of control | Platelet Aggregation (% of control) ([4]; preincubation 45 minutes): 0 % of control
